Consider 53 molecules from patent publication US20240246941A1, “SUBSTITUTED 4-(3-AMINOPROP-1-YL)AMINOQUINOLINE ANALOGS AS MODULATORS OF MELANOMA-ASSOCIATED ANTIGEN 11 UBIQUITIN LIGASE” (ST. JUDE CHILDREN'S RESEARCH HOSPITAL, INC., priority 2020, published 2024).

The first assay deals with MAGE-A11:PCF11 (Homo sapiens (Human), UniProt P43364). Description: TR-FRET single point screening at 15 μM. The format is binding. On the set-up: unit not given here. Conditions: single point TR-FRET screening at 15 μM against MAGE-A11:PCF11. An excerpt: TR-FRET Assays and High-throughput Screen. Terbium-anti-GST antibody, 1 M Tris pH 7.5 1 M MgCl2 and 1 M DTT were purchased from Invitrogen (Carlsbad, CA), BSA was purchased from Sigma (St. Louis, MO). Dimethyl sulfoxide (DMSO) was purchased from Fisher Scientific (Pittsburgh, PA). Black 384-well low volume plates and 384-well polypropylene compound plates were purchased from Corning Incorporated (Tewksbury, MA). The St. Jude FDA drug and Bioactive library (11,293 chemicals), Drug-like library (10,073 chemicals) and Lead-like library (10,041 chemicals) were custom assembled and purchased from commercial sources including Sigma, Microsource (Gaylordsville, CT), selleckchem (Houston, TX), ChemDiv (San Diego, CA), ChemBridge (San Diego, CA), Enamine (Monmouth Jct., NJ), and Life Chemicals (Niagara-on-the-Lake, ON, Canada). They were arrayed (10 mM in DMSO) in 384-well polypropylene compound plates with columns 1, 2, 13 and 14 empty which were reserved for controls.
Chain of MAGE-A11:PCF11 (P43364 218-429): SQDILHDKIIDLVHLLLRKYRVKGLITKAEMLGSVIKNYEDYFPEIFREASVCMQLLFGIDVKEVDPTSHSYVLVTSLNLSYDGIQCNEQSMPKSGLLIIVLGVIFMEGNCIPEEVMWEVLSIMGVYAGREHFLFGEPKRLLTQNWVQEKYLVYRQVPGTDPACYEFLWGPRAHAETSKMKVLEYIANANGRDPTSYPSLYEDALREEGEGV
The TR-FRET assay buffer with a formula of 50 mM Tris pH 7.5, 20 mM MgCl2, 0.1 mg/ml BSA and 1 mM DTT was freshly prepared before each experiment. All TR-FRET assays were performed in black 384-well plates with 20 μl/well assay volume in the TR-FRET assay buffer at room temperature (approximately 25° C.). All peptides or compounds were solubilized in DMSO. To test the competitive activity of peptides or compounds against the interaction between GST-MAGEA11 MHD and FAM-PCF11_4 peptide, 10 μl/well peptide or compound at specified concentration was dispensed into a black 384-well low volume plate, followed by 5 μl/well FAM-PCF11_4 (800 nM), 5 μl/well Tb-anti-GST (20 nM) and GST-MAGEA11 MHD (20 nM). The assay components in each well was then mixed by shaking the plate on an IKA MTS 2/4 digital microtiter plate shaker (IKA Works; Wilmington, NC, USA) at 900 RPM for 1 minute. The plate was further centrifuged in an Eppendorf 5810 centrifuge with an A-4-62 swing-bucket rotor (Eppendorf AG, Hamburg, Germany) at 201 g (1000 rpm) for 30 seconds. The plate was then incubated for 90 min with a lid to avoid light exposure to the assay components. After incubation, the fluorescent emission signals at 520 nm and 490 nm channels of individual wells were measured with a PHERAstar FS plate reader (BMG Labtech; Durham, NC, USA) by using a 340 nm excitation filter, 100 μs delay time, and 200 μs integration time. The TR-FRET fluorescence emission ratio (TR-FRET signal) for each well was presented as 10 000×520 nm/490 nm, which was used directly for curve fitting, or further converted to % Inhibition based on the respective positive and negative controls. The graphic software GraphPad Prism 4.81 (GraphPad Software; La Jolla, CA, USA) was used to generate curves and derive IC50 values of tested peptides or compounds, if applicable.
TR-FRET screen for identifying MAGEA11 small molecule inhibitors was performed as follows. The primary one-concentration screening and subsequent 10 or 20-concentration dose response tests were accomplished with an automated High Throughput Screening system (HighRes Biosolutions, Beverly, MA)^30. In the primary screening, 15 μl/well FAM-PCF11_4 (267 nM) was first dispensed with a Multidrop Combi Reagent Dispenser (Thermo Fisher Scientific, Waltham, MA) to black 384-well low volume assay plates. The plates were spun down with a Velocity11 VSpin microplate centrifuge (Agilent Technologies, Santa Clara, CA). 30 nl/well of 10 mM compound/DMSO solutions, or DMSO alone, were transferred from compound plates (the St. Jude FDA drug and bioactive library, Drug-like library and Lead-like library) or a control plate to the assay plates with a Pin Tool (V&P Scientific, San Diego, CA). The compounds were arrayed in columns 3 to 12 and columns 15 to 24 of compound plates. The controls were arrayed in columns 1, 2, 13 and 14 of a compound plate. […]
On the technique in general: TR-FRET usually uses a lanthanide donor and a delayed reading to cut background.
Consider `CCOc1ccc2ncc(S(=O)(=O)c3ccc(OC)cc3)c(N3CCN(CC)CC3)c2c1` [SJ000083971], for which the TR-FRET signal is listed as −6.389.

On to `CCc1ccc(CNCCCNc2c3ccc(Cl)cc3nc3ccc(OC)cc23)cc1` [SJ000521005], for which the TR-FRET signal is reported as −390.4.

Consider `CN(C)CCNc1c2c(nc3ccccc13)CCC2` [SJ000013622], for which the TR-FRET signal stood at 3.285.

Molecule `CCCN(CCCNc1c2ccc(Cl)cc2nc2ccc(OC)cc12)Cc1ccc(C)s1` [SJ000520927] came in with a TR-FRET signal of −124.8.

In turn, `COc1ccc2nc3cc(Cl)ccc3c(NCCCNCc3cc4ccccc4o3)c2c1` [SJ000520997] gave a TR-FRET signal of −146.7.

On to `Cc1cc(NC(=O)CN2CCN(C(=O)c3ccco3)CC2)c2ccccc2n1` [SJ000111679], for which the TR-FRET signal is −1.072.

In turn, `CCCN(CCCNc1c2ccc(Cl)cc2nc2ccc(OC)cc12)Cc1ccc(CC)cc1` [SJ000522972] came in with a TR-FRET signal of −105.1.

`CCCN(CCCNc1c2ccc(Cl)cc2nc2ccc(OC)cc12)Cc1cc(OC)ccc1O` [SJ000520933]: the TR-FRET signal is reported as −150.8.

The molecule `Cc1ccc(S(=O)(=O)c2cnc3ccc(C)cc3c2N2CCN(c3ccc(F)cc3)CC2)cc1` [SJ000117058] registered a TR-FRET signal of −4.068.

Molecule `Clc1ccc2c(NCCCCN(Cc3ccccc3)Cc3cccs3)ccnc2c1` [SJ000312686] displayed a TR-FRET signal of 25.05.

`CCN1CCN(c2c(S(=O)(=O)c3ccc(Cl)cc3)cnc3ccc(C)cc23)CC1` [SJ000083967] yielded a TR-FRET signal of −3.098.

`COc1ccc2nc3cc(Cl)ccc3c(NCCCNCc3cccnc3)c2c1` [SJ000520986] displayed a TR-FRET signal of −409.

Molecule `CCCCCN(CCCCC)CC(=O)Nc1c2c(nc3ccccc13)CCC2` [SJ000487033] had a TR-FRET signal of −68.07.

In the case of `CCOC(=O)c1cnc2c(Cl)c(Cl)ccc2c1NCCN(C)C` [SJ000027266], the TR-FRET signal is reported as 2.575.

`CCOc1ccc2ncc(S(=O)(=O)c3ccc(C)cc3)c(N3CCN(c4ccc(F)cc4)CC3)c2c1` [SJ000117060] registered a TR-FRET signal of −11.07.

Regarding `CCN1CCN(c2c(S(=O)(=O)c3ccc(Cl)cc3)cnc3ccccc23)CC1` [SJ000247367], the TR-FRET signal was −2.261.

In the case of `CCCN(CCCNc1c2ccc(Cl)cc2nc2ccc(OC)cc12)CC(CC)CC` [SJ000520939], the TR-FRET signal was −160.3.

In turn, `CCN1CCN(c2c(S(=O)(=O)c3ccc(Cl)cc3)cnc3cc(OC)c(OC)cc23)CC1` [SJ000083970] showed a TR-FRET signal of −6.809.

In turn, `CCOc1ccc2ncc(C(=O)c3ccc(C)cc3)c(N3CCN(C)CC3)c2c1` [SJ000247254] came in with a TR-FRET signal of −10.61.

With `CCCN(CCCNc1c2ccc(Cl)cc2nc2ccc(OC)cc12)Cc1cccc(OC)c1` [SJ000520961], the TR-FRET signal is reported as −244.6.

Turning to `CCC(CC)CN1CCC(Nc2ccnc3cc(Cl)ccc23)CC1` [SJ000523086], the TR-FRET signal worked out at 9.754.

`CCOc1ccc2ncc(S(=O)(=O)c3ccccc3)c(N3CCN(c4ccc(F)cc4)CC3)c2c1` [SJ000083979]: the TR-FRET signal is on record as −181.3.

The molecule `CCCN(CCCNc1c2ccc(Cl)cc2nc2ccc(OC)cc12)Cc1ccc(-c2cccc(Cl)c2)o1` [SJ000523020] registered a TR-FRET signal of −169.7.

The molecule `COc1ccc2ncc(S(=O)(=O)c3ccc(Cl)cc3)c(N3CCN(C)CC3)c2c1` [SJ000083952] yielded a TR-FRET signal of −3.658.

`Clc1ccc2c(NCCCCN(Cc3ccccc3)Cc3ccc(Br)o3)ccnc2c1` [SJ000312684] returned a TR-FRET signal of 14.96.

Turning to `COc1ccc2ncc(S(=O)(=O)c3ccccc3)c(N3CCN(Cc4ccccc4)CC3)c2c1` [SJ000247248], the TR-FRET signal was −71.16.

Regarding `CCc1ccc(S(=O)(=O)c2cnc3ccccc3c2N2CCN(c3ccccc3)CC2)cc1` [SJ000117053], the TR-FRET signal is −21.21.

Still in this assay, the particulars now being: single point TR-FRET screening of quinoline compounds against MAGE-A11:PCF11; 15 μM.
The molecule `Cc1cc(C)c(CN(CCCNc2ccnc3cc(Cl)ccc23)Cc2ccccc2)c(C)c1` [SJ000361169] displayed a TR-FRET signal of 31.19.

In the case of `COc1cccc(Oc2ccc3c(NCCCNCc4ccco4)ccnc3c2)c1` [SJ000311214], the TR-FRET signal turned out to be 29.11.

The molecule `O=[N+]([O-])c1ccccc1CN(CCCNc1ccnc2cc(Cl)ccc12)Cc1ccccc1` [SJ000361177] had a TR-FRET signal of 16.42.

In the case of `CCCN(CCCNc1ccnc2cc(Cl)ccc12)Cc1ccc([N+](=O)[O-])s1` [SJ000522750], the TR-FRET signal was determined as 9.134.

Turning to `CCCN(CCCNc1c2ccc(Cl)cc2nc2ccc(OC)cc12)Cc1cc2ccccc2s1` [SJ000522962], the TR-FRET signal was −21.58.

For the molecule `CCC(CC)CNCCCNc1ccnc2cc(C(F)(F)F)ccc12` [SJ000361111], the TR-FRET signal is 24.33.

For the molecule `CCCN(CCCNc1ccnc2cc(Cl)ccc12)Cc1c(F)c(F)c(F)c(F)c1F` [SJ000522748], the TR-FRET signal amounted to 19.87.

Molecule `CC(C)CN(CCCNc1ccnc2cc(Cl)ccc12)Cc1ccccc1` [SJ000357468] had a TR-FRET signal of 18.75.

Take `CCCN(CCCNc1c2ccc(Cl)cc2nc2ccc(OC)cc12)Cc1cccc(OC)c1O` [SJ000520930]: the TR-FRET signal is listed as −81.96.

For the molecule `Clc1ccc2c(NCCCNCc3ccco3)ccnc2c1` [SJ000000502], the TR-FRET signal is listed as 6.349.

In turn, `Cn1cccc1CNCCCNc1ccnc2cc(Cl)ccc12` [SJ000521019] returned a TR-FRET signal of 18.96.

As for `Clc1ccc(Oc2ccc3c(NCCCNCc4ccco4)ccnc3c2)cc1` [SJ000311226], the TR-FRET signal is 37.65.

`FC(F)(F)Oc1cccc(CN(CCCNc2ccnc3cc(Cl)ccc23)Cc2ccccc2)c1` [SJ000520464]: the TR-FRET signal came out at 27.78.

Consider `CCCN(CCCNc1ccnc2cc(Cl)ccc12)Cc1cc2ccccc2o1` [SJ000522991], for which the TR-FRET signal came out at 9.295.

For the molecule `CCOC(=O)c1cnc2c(C)cccc2c1NCCCN1CCOCC1` [SJ000279636], the TR-FRET signal was found to be 3.353.

On to `FC(F)(F)c1ccc2c(NCCCNCC3CCCCC3)ccnc2c1` [SJ000361110], for which the TR-FRET signal is recorded as 27.12.

On to `CCCCNCCCNc1ccnc2cc(Cl)ccc12` [SJ000521027], for which the TR-FRET signal is on record as 8.454.

The molecule `CCCN(CCCNc1ccnc2cc(C(F)(F)F)ccc12)Cc1ccccc1OC(F)(F)F` [SJ000520470] returned a TR-FRET signal of 5.934.

Molecule `CCOC(=O)c1cnc2c(C)cc(C)cc2c1NCCCN1CCOCC1` [SJ000173725] had a TR-FRET signal of 6.494.

Molecule `CCCN(CCCNc1ccnc2cc(Cl)ccc12)Cc1nccn1C` [SJ000523002] had a TR-FRET signal of 6.351.

The molecule `CCCN(CCCNc1ccnc2cc(Cl)ccc12)Cc1[nH]cnc1C` [SJ000523010] gave a TR-FRET signal of 12.05.

`Clc1ccc2c(NCCCN(Cc3ccccc3)Cc3ccc(Br)o3)ccnc2c1` [SJ000312671] returned a TR-FRET signal of −1.797.

With `CCCN(CCCNc1ccnc2cc(C(F)(F)F)ccc12)Cc1csc2ccccc12` [SJ000520483], the TR-FRET signal is on record as 19.45.

`COc1ccc(OC(F)(F)F)cc1CN(CCCNc1ccnc2cc(Cl)ccc12)Cc1ccccc1` [SJ000520452]: the TR-FRET signal amounted to 20.44.

As for `CCCN(CCCNc1ccnc2cc(Cl)ccc12)Cc1ccc[nH]1` [SJ000357445], the TR-FRET signal was 10.34.

Molecule `CCC(CC)c1ccc2c(NCCCNCc3ccco3)ccnc2c1` [SJ000311266] displayed a TR-FRET signal of 24.56.
